Laboratory results as given in patent US10568949B2, “Method of eliciting an anti-tumor immune response with controlled delivery of TLR agonists in porous polymerlc devices” (President and Fellows of Harvard College, priority 2008, dated 2020).
Where “and” joins values, the source holds several entries; their conditions need not be identical. Identical values can stand only once.

Key:
[1] = In vitro release / retention of GM-CSF, cytokines and TLR agonists from PLG scaffolds; assay type: physicochemical
Description: To determine the incorporation efficiency of CpG-ODN incorporation, PLG scaffolds were prepared with 50 ug of CpG-ODN and digested in 1 ml of chloroform (Sigma Aldrich, and washed with 2 mls of aqueous buffer. The aqueous phase was isolated and the amount of CpG-ODN incorporated was determined by absorbance readings (260/280 and 260/230 ratios calculated at 0.2 mm pathlength) using a Nanodrop instrument, ND1000 (Nanodrop technologies, Wilmington, Del.). Similarly, to determine CpG-ODN release kinetics CpG-ODN loaded scaffolds were placed in 1 ml of Phosphate Buffer Solution (PBS) in an incubator (37° C.). At various timepoints, the PBS release media was collected and replaced with fresh media. The total amount of CpG-ODN incorporated into PLG scaffolds and released into PBS over time was analyzed and recorded.

T cells = test: T cell infiltration at PLG vaccine site (flow cytometry); assay type: in vivo, C57BL/6J mice; settings: with tumor lysate and GM-CSF, day 12
Description: Blank PLG matrices and matrices containing 3000 ng of GM-CSF alone or in combination with either 1, 10, 50, or 100 μg of CpG-ODN (studies were also performed with tumor lysates copresented with either 3000 ng of GM-CSF or 100 μg of CpG-ODN alone or in combination) were implanted into subcutaneous pockets on the back of 7- to 9-week-old male C57BL/6J mice. For histological examination, scaffolds were excised and fixed in Z-fix solution (Anatech), embedded in paraffin, and stained with hematoxylin and eosin (H&E). To analyze DC recruitment, scaffolds were excised at various time points and digested the ingrown tissue into single-cell suspensions with a collagenase solution (250 U/ml; Worthington) that was agitated at 37° C. for 45 min. The cell suspensions were then poured through a 40-μm cell strainer to isolate cells from scaffold particles, and the cells were pelleted and washed with cold PBS and counted with a Z2 coulter counter (Beckman Coulter). […] To assess T cell infiltration, PE-Cy7-conjugated CD3 stains were performed in conjunction with APC-conjugated CD8a (CD8 T cells), FITC-conjugated CD4 (CD4 T cells), and PE-conjugated FoxP3 (Treg) and analyzed with flow cytometry. Cells were gated according to positive FITC, APC, and PE with isotype controls, and the percentage of cells staining positive for each surface antigen was recorded.

B16-F10 melanoma tumors = test: T-cell infiltration into tumor tissue (immunohistochemistry); assay type: in vivo, C57BL/6J mice
Description: PLG scaffolds with melanoma tumor lysates and various dosages of GM-CSF and/or 10 μg PEI-CpG-ODN condensates were implanted subcutaneously into the lower left flank of C57BL/6J mice. Animals were challenged 14 days later with a subcutaneous injection of 10^5 B16-F10 melanoma cells (ATCC, Manassas, N.J.) in the back of the neck. Animals were monitored for the onset of tumor growth (approximately 1 mm^3) and sacrificed for humane reasons when tumors grew to 20-25 mm (longest diameter). For histological examination, tumors were biopsied at days 20-25 after injection and fixed in Z-fix (Anatech, Battle Creek, Mich.) and stained for hematoxylin and eosin. To examine tumor tissue for T-cell infiltration, immunoperoxidase staining was performed using the avidin-biotin-peroxidase Vectastain Elite ABC kit (Vector Laboratories). The primary antibodies used were GK 1.5 (CD4), and 53-6.72 (CD8) and staining was developed using DAB+ substrate chromogen (DAKO, Carpinteria, Calif.). Sections from tumor samples (n=3 or 4) were visualized at 40× and 100× with a Nikon light microscope (Indianapolis, Ind.) and positively stained T-cells were counted manually.

B16-F10 melanoma cells [2] = test: Example 7: prophylactic vaccination, B16-F10 melanoma; assay type: in vivo, C57BL/6J mice; design: concentration or dose not given beside the values; settings: for survival rate: B16-F10 tumor lysates and GM-CSF, with or without TLR agonist, challenge at day 14
TRP2-specific CTLs = TRP2-specific CTLs in spleens (pentamer staining); assay type: in vivo, C57BL/6J mice; settings: GM-CSF, antigen
Excerpt: […] These cells were initially stained with APC-H-2Kb-TRP2 pentamers (Proimmune) and subsequently stained with PE-conjugated monoclonal antibody to CD8 (BD Pharmingen) before being analyzed by flow cytometry.

host DCs = test: In vivo DC recruitment and activation in PLG matrices (FACS); design: species or system C57BL/6J mice; settings: for proportion of CD8+ cDCs in DC population at vaccine site / proportion of pDCs in DC population at vaccine site / total DC numbers in situ: antigen-loaded matrices, CpG and GM-CSF together versus GM-CSF alone
Description: Blank scaffolds and scaffolds containing GM-CSF with or without 10 μg PEI-ODN control (5′-tcc atg agc ttc ctg agc tt-3′) (SEQ ID NO: 6) or 10 μg PEI-CpG-ODN condensate loaded scaffolds were implanted into subcutaneous pockets on the back of 7-9 week old male C57BL/6J mice. For histological examination scaffolds were excised and fixed in Z-fix solution, embedded in paraffin, and stained with hematoxylin and eosin. To analyze DC recruitment, scaffolds were excised and the ingrown tissue was digested into single cell suspensions using a collagenase solution (Worthingtion, 250 U/ml) that was agitated at 37° C. for 45 minutes. The cell suspensions were then poured through a 40 μm cell strainer to isolate cells from scaffold particles and the cells were pelleted and washed with cold PBS and counted using a Z2 coulter counter (Beckman Coulter). The resultant cell populations were then stained with primary antibodies (BD Pharmingen, San Diego, Calif.) conjugated to fluorescent markers to allow for analysis by flow cytometry. APC-conjugated CD11c (dendritic cell marker) and PE-conjugated CD86 (B7, costimulatory molecule) stains were conducted for DC recruitment analysis, and APC-conjugated CD11c, FITC-conjugated CCR7, and PE-conjugated MHCII stains were conducted for DC programming analysis. Cells were gated according to positive FITC, APC and PE using isotype controls, and the percentage of cells staining positive for each surface antigen was recorded. To track in vivo DC emigration from scaffolds toward the inguinal lymph nodes, 250 μg of lyophilized fluoroscein isothiocyanate (FITC) (Molecular Probes, Carlsbad, Calif.) was incorporated into scaffolds by mixing with PLG microspheres before scaffold processing, and FITC was also applied by incubating scaffolds with 330 ul of 3% FITC solution for 30 min. […] Cell suspensions from LNs were prepared by digestion in collagenase for 30 min and pressing of the tissue through 70 μm cell strainers, and examined for CD11c(+)FITC(+) cell numbers by flow cytometry.
Blank PLG matrices and matrices containing 3000 ng of GM-CSF alone or in combination with either 1, 10, 50, or 100 μg of CpG-ODN (studies were also performed with tumor lysates copresented with either 3000 ng of GM-CSF or 100 μg of CpG-ODN alone or in combination) were implanted into subcutaneous pockets on the back of 7- to 9-week-old male C57BL/6J mice. For histological examination, scaffolds were excised and fixed in Z-fix solution (Anatech), embedded in paraffin, and stained with hematoxylin and eosin (H&E). To analyze DC recruitment, scaffolds were excised at various time points and digested the ingrown tissue into single-cell suspensions with a collagenase solution (250 U/ml; Worthington) that was agitated at 37° C. for 45 min. The cell suspensions were then poured through a 40-μm cell strainer to isolate cells from scaffold particles, and the cells were pelleted and washed with cold PBS and counted with a Z2 coulter counter (Beckman Coulter). To assess DC infiltration and activation, subsets of the total cell population isolated from PLG matrices were stained with primary antibodies (BD Pharmingen) conjugated to fluorescent markers to allow for analysis by flow cytometry. Allophycocyanin (APC)-conjugated CD11c (DC marker) and phycoerythrin (PE)-conjugated CD86 (B7, costimulatory molecule) stains were conducted for DC recruitment analysis, and APC-conjugated CD11c, fluorescein isothiocyanate (FITC)-conjugated CCR7, and PE-conjugated MHCII stains were conducted for DC programming analysis. To further delineate the presence of specific DC subsets, cells were stained with APC-conjugated CD11c and PE-conjugated PDCA-1 (pDC marker), APC-conjugated CD11c and PE-conjugated CD8 (CD8 DCs), or APC-conjugated CD11c and FITC-conjugated CD11b (CD11b DCs).

B16-F10 melanoma cells [3] = test: Prophylactic vaccination, B16-F10 melanoma tumor challenge; settings: for mouse survival: antigen matrices, CpG and GM-CSF together versus GM-CSF alone
Description: PLG scaffolds with melanoma tumor lysates and various dosages of GM-CSF and/or 10 μg PEI-CpG-ODN condensates were implanted subcutaneously into the lower left flank of C57BL/6J mice. Animals were challenged 14 days later with a subcutaneous injection of 10^5 B16-F10 melanoma cells (ATCC, Manassas, N.J.) in the back of the neck. Animals were monitored for the onset of tumor growth (approximately 1 mm^3) and sacrificed for humane reasons when tumors grew to 20-25 mm (longest diameter).
PLG scaffolds with melanoma tumor lysates and various dosages of GM-CSF and/or various quantities of PEI-CpG-ODN condensates were implanted subcutaneously into the lower left flank of C57BL/6J mice. For prophylactic vaccinations, animals were challenged 14 days later with a subcutaneous injection of 10^5 B16-F10 melanoma cells [American Type Culture Collection (ATCC)] in the back of the neck. Animals were monitored for the onset of tumor growth (˜1 mm^3) and killed for humane reasons when tumors grew to 20 to 25 mm (longest diameter).

[4] = optimal CpG-ODN doses (10-25 μg) opposed by GM-CSF 3 μg, in vivo
[5] = tumor lysate with GM-CSF and CpG, day 10
[6] = optimal GM-CSF exposure (400 ng) with tumor antigen

CpG-ODN 1826
retained in the PLG matrices ([1]; over 25 days): > 80% | ratio of CD8 CTLs to FoxP3 Treg cells at vaccine site (factor) (T cells): ~25 | increase in CD8(+) T-cell infiltration into tumors over controls (B16-F10 melanoma tumors; infection mimics, 10 μg CpG-ODN dose): ~3 fold | survival rate (B16-F10 melanoma cells [2]): 90% | long-term survival (B16-F10 melanoma cells [2]; wildtype mice, CpG-ODN loaded PLG vaccines): 100% | TRP2-specific CD8 T cells (TRP2-specific CTLs; CpG dose 50 μg): 0.3 % splenocytes | numbers of resident pDCs (host DCs; 3000 ng GM-CSF, 10 μg CpG-ODN): 520,000 cells | numbers of resident pDCs (host DCs; 3000 ng GM-CSF, 100 μg CpG-ODN): 1,200,000 cells and 1,100,000 cells | increase in CCR7 expressing DCs in matrices over GM-CSF or CpG-ODN delivery alone (host DCs; CpG-ODN with GM-CSF): ~4.5 fold | increase in MHCII expressing DCs in matrices over GM-CSF or CpG-ODN delivery alone (host DCs; CpG-ODN with GM-CSF): approximately 2.5 fold | total cells at the matrix site that were CD8(+) (host DCs; antigen presenting matrices with GM-CSF and CpG-ODN): 10.3% | proportion of CD8+ cDCs in DC population at vaccine site (host DCs; day 10, listed as CpG): ~14% and ~9.4% | proportion of pDCs in DC population at vaccine site (host DCs; day 10, listed as CpG): ~31% and ~38% | total DC numbers in situ (host DCs; listed as CpG): 3.0±0.6 million DCs and 3.05±0.55 million DCs | optimal CpG-ODN dose for DC activation in vivo (host DCs; in presence of high GM-CSF levels): 10 to 25 µg | numbers of activated DCs generated (host DCs; infection-mimicking system, CpG-ODN ~10-25 μg with GM-CSF): > 10^6 | DC activation (host DCs; [4]): 44% | number of activated DCs (host DCs; [4]): 1.5×10^6 cells | increase (factor / fold) in pDCs over blank controls (host DCs; [5]): 10 | increase (factor / fold) in pDCs over matrices without lysate/antigen (host DCs; [5]): 2 | increase (factor / fold) in CD8+ DCs over blank matrices (host DCs; tumor lysates with CpG-ODN and GM-CSF): 9 | number of CD8+ DCs (CD11c(+)CD8(+) cDCs) in matrices (host DCs; tumor lysates with CpG-ODN, no GM-CSF): 200,000 | mouse survival (B16-F10 melanoma cells [3]): 90% | survival rate (B16-F10 melanoma cells [3]; lysate, GM-CSF and 10 μg CpG-ODN): 50% and 45% | survival rate (B16-F10 melanoma cells [3]; lysate, GM-CSF and 10 μg CpG-ODN, listed as CpG): 50% | survival rate (B16-F10 melanoma cells [3]; lysate, GM-CSF and 50 μg CpG-ODN): 60% | survival rate (B16-F10 melanoma cells [3]; lysate, GM-CSF and 100 μg CpG-ODN): 90% | vaccinated mice surviving B16-F10 challenge (B16-F10 melanoma cells [3]; tumor lysates with CpG-ODN (1, 10, 50 or 100), no GM-CSF): 10 to 30% and 20% and 10-30%

B1: granulocyte macrophage colony stimulating factor (protein, UniProt P01587 18-141, looked up)
Granulocyte-macrophage …: APTRSPITVTRPWKHVEAIKEALNLLDDMPVTLNEEVEVVSNEFSFKKLTCVQTRLKIFEQGLRGNFTKLKGALNMTASYYQTYCPPTPETDCETQVTTYADFIDSLKTFLTDIPFECKKPGQK
notes: cytokine encapsulated in and released from PLG matrices to recruit DCs
incorporated cytokine released from scaffolds ([1]; by day 4, in vitro): approximately 43% | GM-CSF protein released from PLG matrices ([1]; by day 10, in vitro): approximately 60% | daily release of protein ([1]; over the next 23 days after day 4): approximately 0.9% | bioactive GM-CSF load released from PLG matrices ([1]; within the first 5 days): approximately 60% | ratio of CD8 CTLs to FoxP3 Treg cells at vaccine site (factor) (T cells): almost even ratio | increase in CD8(+) cytotoxic T-cell numbers in tumors over blank controls (B16-F10 melanoma tumors; appropriate GM-CSF presentation with antigen): 2 fold | survival rate (B16-F10 melanoma cells [2]): 10% | TRP2-specific CD8 T cells (TRP2-specific CTLs; CpG dose 0 μg): 0.2 % splenocytes | day at which activation state of DCs peaked (host DCs; 3000 ng GM-CSF): 10 days | numbers of resident pDCs (host DCs; 3000 ng GM-CSF, 0 μg CpG-ODN): 190,000 cells | increase (factor / fold) in CD11c DCs recruited vs blank PLG matrices (host DCs; 3000 ng GM-CSF, day 14): ~8 | day at which activation state of DCs peaked (host DCs; 7000 ng GM-CSF): 28 days | matrix-resident DCs that were CD11b+ (host DCs; GM-CSF delivery): ~87% | number of DCs residing in the material (host DCs; GM-CSF delivery): ~10^6 cells | total DC numbers in situ (host DCs): 4.2±0.9 million DCs and 2.67±0.64 million DCs | proportion of CD8+ cDCs in DC population at vaccine site (host DCs; day 10): 5.5% | proportion of pDCs in DC population at vaccine site (host DCs; day 10): 7% | number of activated DCs (host DCs; best GM-CSF-based vaccine): ~240,000 DCs | recruited DCs that were activated (host DCs; best GM-CSF-based vaccine): approximately 26% | animals cured / with protective anti-tumor immunity (B16-F10 melanoma cells [3]; GM-CSF with antigen, optimal GM-CSF dose): 23% | mouse survival (B16-F10 melanoma cells [3]): 20% | animal survival (B16-F10 melanoma cells [3]; lysate, GM-CSF, CpG dose 0 μg): 23% | delay of tumor formation (B16-F10 melanoma cells [3]; optimal GM-CSF dose with antigen, in 50% of the animals): approximately 40 days | increase in average time before tumor formation compared to antigen alone (B16-F10 melanoma cells [3]; [6]): 3 fold | increase in average time before tumor formation over non-optimal GM-CSF exposure (B16-F10 melanoma cells [3]; [6]): ~2 fold
